From patent publication US9144239B2, “Macrocyclic picolinamides as fungicides” (DOW AGROSCIENCES LLC, priority 2012, dated 2015) come the findings set out here.

Each structure is given as a SMILES string. Where two headings read alike, the source gives them in different places.

Format in all cases: in vivo
The test system of assay [1] is Puccinia triticina; synonym: Puccinia recondita f. sp. tritici. In words: Fungicidal activity: wheat brown rust (PUCCRT), wheat seedlings. The following applies: 100 ppm, wheat. The procedure, abridged: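 Wheat (Yuma) seedlings at first-leaf stage, inoculated with Puccinia triticina spores before or after treatment, held overnight in dark dew room at 22° C, 100% RH, then greenhouse at 24° C. Acetone solutions diluted with nine volumes water containing 110 ppm Triton X-100, sprayed to run-off. Percent disease control derived from severity (0–100%) relative to untreated plants.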

Another assay concerns Cercospora beticola. In words: Fungicidal activity: leaf spot of sugar beets (CERCBE). Particulars: 24 h, 1 Day Protectant, sugar beet, read-out: Disease Control CERCBE 1DP. As to the method:
Technical grades of materials were dissolved in acetone, which were then mixed with nine volumes of water containing 110 ppm Triton X-100. The fungicide solutions were applied onto wheat seedlings using an automated booth sprayer to run-off. All sprayed plants were allowed to air dry prior to further handling. Wheat plants (variety Yuma) were grown from seed in a greenhouse in 50% mineral soil/50% soil-less Metro mix until the first leaf was fully emerged, with 7-10 seedlings per pot. These plants were inoculated with an aqueous spore suspension of Septoria tritici either prior to or after fungicide treatments. After inoculation the plants were kept in 100% relative humidity (one day in a dark dew chamber followed by two to three days in a lighted dew chamber at 20° C.) to permit spores to germinate and infect the leaf. The plants were then transferred to a greenhouse set at 20° C. for disease to develop. When disease symptoms were fully expressed on the 1st leaves of untreated plants, infection levels were assessed on a scale of 0 to 100 percent disease severity. Percent disease control was calculated using the ratio of disease severity on treated plants relative to untreated plants. Evaluation of Fungicidal Activity: Leaf Spot of Sugar Beets (Cercospora beticola; Bayer Code CERCBE) Sugar beet plants (variety HH88) were grown in soil-less Metro mix and trimmed regularly to maintain a uniform plant size prior to test. Plants were inoculated with a spore suspension 24 hr after fungicide treatments. Inoculated plants were kept in a dew chamber at 22° C. for 48 hr then incubated in a greenhouse set at 24° C. under a clear plastic hood with bottom ventilation until disease symptoms were fully expressed. Fungicide formulation, application and disease assessment on the sprayed leaves followed the procedures as described in the Example A.

Assay [2] has as its system Blumeria graminis f.sp. hordei; synonym: Erysiphe graminis f.sp. hordei. The assay is described as follows: Fungicidal activity: barley powdery mildew (ERYSGH). The following applies: 24 h, 1 Day Protectant, read-out: Disease Control ERYSGH 1DP. As to the method: Technical grades of materials were dissolved in acetone, which were then mixed with nine volumes of water containing 110 ppm Triton X-100. The fungicide solutions were applied onto wheat seedlings using an automated booth sprayer to run-off. All sprayed plants were allowed to air dry prior to further handling. Wheat plants (variety Yuma) were grown from seed in a greenhouse in 50% mineral soil/50% soil-less Metro mix until the first leaf was fully emerged, with 7-10 seedlings per pot. These plants were inoculated with an aqueous spore suspension of Septoria tritici either prior to or after fungicide treatments. After inoculation the plants were kept in 100% relative humidity (one day in a dark dew chamber followed by two to three days in a lighted dew chamber at 20° C.) to permit spores to germinate and infect the leaf. The plants were then transferred to a greenhouse set at 20° C. for disease to develop. When disease symptoms were fully expressed on the 1st leaves of untreated plants, infection levels were assessed on a scale of 0 to 100 percent disease severity. Percent disease control was calculated using the ratio of disease severity on treated plants relative to untreated plants. Evaluation of Fungicidal Activity: Barley Powdery Mildew (Blumeria graminis f.sp. hordei; Synonym: Erysiphe graminis f.sp. hordei; Bayer Code […]) Barley seedlings (variety Harrington) were propagated in soil-less Metro mix, with each pot having 8 to 12 plants, and used in the test when first leaf was fully emerged. Test plants were inoculated by dusting with infected stock plants 24 hr after fungicide treatments. After inoculation the plants were kept in a greenhouse set at 20° C. for disease to develop. Fungicide formulation, application and disease assessment on the sprayed leaves followed the procedures as described in the Example A.

In a further assay the test system is Uncinula necator. In words: Fungicidal activity: grape powdery mildew (UNCINE). Particulars: Erysiphe necator, 24 h, 1 Day Protectant, read-out: Disease Control UNCINE 1 DP. As to the method:
Technical grades of materials were dissolved in acetone, which were then mixed with nine volumes of water containing 110 ppm Triton X-100. The fungicide solutions were applied onto wheat seedlings using an automated booth sprayer to run-off. All sprayed plants were allowed to air dry prior to further handling. Wheat plants (variety Yuma) were grown from seed in a greenhouse in 50% mineral soil/50% soil-less Metro mix until the first leaf was fully emerged, with 7-10 seedlings per pot. These plants were inoculated with an aqueous spore suspension of Septoria tritici either prior to or after fungicide treatments. After inoculation the plants were kept in 100% relative humidity (one day in a dark dew chamber followed by two to three days in a lighted dew chamber at 20° C.) to permit spores to germinate and infect the leaf. The plants were then transferred to a greenhouse set at 20° C. for disease to develop. When disease symptoms were fully expressed on the 1st leaves of untreated plants, infection levels were assessed on a scale of 0 to 100 percent disease severity. Percent disease control was calculated using the ratio of disease severity on treated plants relative to untreated plants. Evaluation of Fungicidal Activity: Grape Powdery Mildew (Uncinula necator; Bayer Code […]) Grape seedlings (variety Carignane) were grown in soil-less Metro mix, with one plant per pot, and used in the test when approximately one month old. Plants were inoculated 24 hr after fungicide treatment by shaking spores from infected leaves over test plants. Plants were maintained in a greenhouse set at 20° C. until disease was fully developed. Fungicide formulation, application and disease assessment on the sprayed leaves followed the procedures as described in the Example A.

The mark [3] stands for this setting: 24 h, 1 Day Protectant, read-out: Disease Control PUCCRT 1DP.
The mark [4] stands for this setting: 72 h, 3 Day Curative, read-out: Disease Control PUCCRT 3DC.

`COc1ccnc(C(=O)N[C@H]2COC[C@H](OCC(C)C)[C@@H](OCC(C)C)[C@H](C)OC2=O)c1OCOC(=O)C(C)C` [Compound 2]: the pest or weed control at 100 ppm in assay [1] (setting [3]) lay in the range of 80 to 100%; in assay [1] (setting [4]) it was 80 to 100%; in the assay with Cercospora beticola it was 0 to 80%; in assay [2] it was 80 to 100%.

Consider `COc1ccnc(C(=O)N[C@H]2COC[C@H](OCC(C)C)[C@@H](OCC(C)C)[C@H](C)OC2=O)c1OCOC(C)=O` [Compound 3, (2-((3S,7S,8S,9S)-7,8-diisobutoxy-9-methyl-2-oxo-1,5-dioxonan-3-ylcarbamoyl)-4-methoxypyridin-3-yloxy)methyl], for which the pest or weed control at 100 ppm (in assay [1] (setting [3]); in assay [1] (setting [4]); in the assay with Uncinula necator; in the assay on Cercospora beticola; in assay [2]) was 80 to 100% throughout.

For the compound `COc1ccnc(C(=O)NC2COC[C@H](OCc3ccccc3)[C@@H](OCc3ccccc3)[C@H](C)OC2=O)c1OCOC(C)=O` (some centres unmarked) [Compound 12], the pest or weed control at 100 ppm in assay [1] (setting [3]) was 80 to 100%; in assay [1] (setting [4]) it was 80 to 100%; with Uncinula necator, 0 to 80%; with Cercospora beticola, 80 to 100%; in assay [2] it was 0 to 80%.

With `CCCCO[C@H]1COC[C@H](NC(=O)c2nccc(OC)c2OCOC(C)=O)C(=O)O[C@@H](C)[C@@H]1OCCOC` [Compound 54], the pest or weed control at 100 ppm in assay [1] (setting [3]) is 80 to 100%; in assay [1] (setting [4]) it was 80 to 100%; in the assay with Uncinula necator, 0 to 80%; with Cercospora beticola it was 0 to 80%; in assay [2], 0 to 80%.

As for `CCCCO[C@H]1COC[C@H](NC(=O)c2nccc(OC)c2OCOC(C)=O)C(=O)O[C@@H](C)[C@@H]1OCC(F)F` [Compound 55], the pest or weed control at 100 ppm fell in the range of 80 to 100% in assay [1] (setting [3]), 80 to 100% in assay [1] (setting [4]), 0 to 80% in the assay with Uncinula necator and 80 to 100% with Cercospora beticola.

For the compound `COc1ccnc(C(=O)N[C@H]2COC[C@H](OC(=O)C(C)C)[C@@H](OC(=O)C(C)C)[C@H](C)OC2=O)c1OCOC(C)=O` [Compound 57], the pest or weed control at 100 ppm in assay [1] (setting [3]) lay within 80 to 100%; in assay [1] (setting [4]), 80 to 100%; in the assay on Uncinula necator it was 0 to 80%; in the assay with Cercospora beticola, 80 to 100%; in assay [2] it was 0 to 80%.

Turning to `COc1ccnc(C(=O)N[C@H]2COC[C@H](OCCCc3ccccc3)[C@@H](OCCCc3ccccc3)[C@H](C)OC2=O)c1OCOC(C)=O` [Compound 60], the pest or weed control at 100 ppm (in assay [1] (setting [3]); in assay [1] (setting [4]); with Cercospora beticola) was 80 to 100% throughout.

Consider `COc1ccnc(C(=O)N[C@H]2COC[C@H](OC)[C@@H](OC)[C@H](C)OC2=O)c1OCOC(C)=O` [Compound 65], for which the pest or weed control at 100 ppm (in assay [1] (setting [4]); with Uncinula necator; with Cercospora beticola) was 0 to 80% each time.

On to `COc1ccnc(C(=O)N[C@H]2COC[C@H](OCCCC(F)(F)F)[C@@H](OCCCC(F)(F)F)[C@H](C)OC2=O)c1OCOC(C)=O` [Compound 68], for which the pest or weed control at 100 ppm lay in the range of 80 to 100% in assay [1] (setting [3]); 80 to 100% in assay [1] (setting [4]); 0 to 80% in the assay with Uncinula necator; 80 to 100% in the assay with Cercospora beticola; 0 to 80% in assay [2].

With `COc1ccnc(C(=O)N[C@H]2COC[C@H](OCC(C)C)[C@@H](OC3CCCCC3)[C@H](C)OC2=O)c1OCOC(C)=O` [Compound 77], the pest or weed control at 100 ppm in assay [1] (setting [3]) lay in the range of 80 to 100%; in assay [1] (setting [4]), 80 to 100%; in the assay with Uncinula necator, 80 to 100%; with Cercospora beticola, 80 to 100%; in assay [2] it was 0 to 80%.

Turning to `CCC(C)(C)O[C@H]1COC[C@H](NC(=O)c2nccc(OC)c2OCOC(C)=O)C(=O)O[C@@H](C)[C@@H]1OCC(C)C` [Compound 78], the pest or weed control at 100 ppm in assay [1] (setting [3]) lay in the range of 80 to 100%; in assay [1] (setting [4]), 80 to 100%; in the assay with Uncinula necator, 80 to 100%; with Cercospora beticola it was 0 to 80%; in assay [2] it was 0 to 80%.

For the compound `COc1ccnc(C(=O)N[C@H]2COC[C@H](Oc3ccccc3)[C@@H](Oc3ccccc3)[C@H](C)OC2=O)c1OCOC(C)=O` [Compound 84], the pest or weed control at 100 ppm in assay [1] (setting [3]) is 80 to 100%; in assay [1] (setting [4]) it was 80 to 100%; in the assay with Uncinula necator, 0 to 80%; in the assay on Cercospora beticola it was 80 to 100%; in assay [2], 0 to 80%.

In the case of `COc1ccnc(C(=O)N[C@H]2COC[C@H](OCC(C)C)[C@@H](Oc3ccccc3)[C@H](C)OC2=O)c1OCOC(C)=O` [Compound 85], the pest or weed control at 100 ppm in assay [1] (setting [3]) was in the range of 80 to 100%; in assay [1] (setting [4]) it was 80 to 100%; in the assay on Uncinula necator it was 80 to 100%; in the assay with Cercospora beticola, 80 to 100%; in assay [2], 0 to 80%.

Consider `CCCO[C@H]1COC[C@H](NC(=O)c2nccc(OC)c2OCOC(C)=O)C(=O)O[C@@H](C)[C@@H]1Oc1ccccc1` [Compound 221], for which the pest or weed control at 100 ppm (in assay [1] (setting [3]); in assay [1] (setting [4]); with Cercospora beticola) was 80 to 100% each time.

For the compound `CCCO[C@H]1[C@H](C)OC(=O)[C@@H](NC(=O)c2nccc(OC)c2OCOC(C)=O)COC[C@@H]1Oc1ccccc1` [Compound 222], the pest or weed control at 100 ppm (in assay [1] (setting [3]); in assay [1] (setting [4]); in the assay on Cercospora beticola) was 80 to 100% in each case.

In the case of `COc1ccnc(C(=O)N[C@H]2COC[C@H](Oc3ccc(F)cc3)[C@@H](Oc3ccc(F)cc3)[C@H](C)OC2=O)c1OC(C)=O` [Compound 229, 2-(((3S,7S,8S,9S)-7,8-bis(4-fluorophenoxy)-9-methyl-2-oxo-1,5-dioxonan-3-yl)carbamoyl)-4-methoxypyridin-3-yl acetate], the values for the pest or weed control at 100 ppm (in the assay with Uncinula necator; with Cercospora beticola; in assay [2]) were 80 to 100%, 80 to 100% and 0 to 80%, respectively.

As for `COc1ccnc(C(=O)N[C@H]2COC[C@H](Oc3ccc(F)cc3)[C@@H](Oc3ccc(F)cc3)[C@H](C)OC2=O)c1OCOC(C)=O` [Compound 231], the pest or weed control at 100 ppm in the assay on Uncinula necator is 80 to 100%; in the assay with Cercospora beticola, 0 to 80%; in assay [2], 0 to 80%.
